This passage reports EC50 results from patent US12565494B2, “Inhibitors of human respiratory syncytial virus and metapneumovirus” (priority 2022, dated 2026).

One test deals with RSV-A2-GFP virus. Briefly: microbe, parasite or virus in culture. Format: cell-based, Human Respiratory Syncytial Virus. As to conditions: Calu-1 cells, RSV-A2-GFP MOI=1.2, 96 hrs, GFP-expressing cells counted. The protocol:
To set up the assay, ARF vials were thawed in a 37° C. water bath and a control compound was resuspended in assay media DMEM (Dulbecco's Modified Eagle Medium) containing 2% FBS, 100 U/ml Penicillin-Streptomycin.
GFP sequence was derived from pJTI™ R4 Dest CMV N-EmGFP pA Vector (Invitrogen) and was cloned into the intergenic sequence between wild-type RSV-A2 P and M genes using standard recombineering techniques. Recombinant RSV-A2-GFP was propagated in Hep2 cells (human cells contain HeLa marker chromosomes and were derived via HeLa contamination, ATCC CCL-23) with a Multiplicity of Infection (MOI) of 0.1. Virus was harvested 3 days after infection by collecting all culture material and then freeze-thawing the mixture for 5 minutes. Working virus stocks were generated by thawing frozen viral cultures in 37° C. water bath, which were centrifuged at 218 g for 15 min at 4° C. 1/10 of 10×SPG (Biological Industries 06-3061-01-5A) were added and then mixed. The supernatant was aliquoted, frozen in liquid nitrogen, and then transferred to a −80° C. freezer for storage. Virus titer was determined by automated plaque assay in HEp-2 cells following methods described previously (Wen Z. et al.; 2019).
Calu-1 cells were purchased from ATCC (Cat #HTB-54) and were expanded in growth media (DMEM containing 10% FBS, 100 U/ml Penicillin-Streptomycin). To make ARF, cell culture media was removed and discarded and the cell layer was briefly rinsed with PBS to remove serum. 2.5 mL of TrypLE Express solution were added and cells incubated until dislodged, to which growth media was added and the cells were resuspended by gentle pipetting. Cells were counted for concentration and viability as determined by ViCell. Cells were centrifuged at RT, 300 g for 5 minutes to pellet cells. The supernatant was gently aspirated and the pellet was flicked to loosen cells. Cells were resuspended in an appropriate volume of freezing medium (DMEM containing 10% DMSO, 10% FBS, 100 U/ml Penicillin-Streptomycin) to achieve a concentration of 5×10^6 cells/mL. 1 mL aliquots of the cell suspension were transferred to freezing vials. The vials were put into an upright container in a −80° C. freezer overnight before transferring vials to liquid nitrogen for storage
Assay ready freeze-down (ARF, generation described separately) Calu-1 cells (ATCC HTB-54) were used. Compound plates were prepared by dispensing compounds dissolved in DMSO into the wells of a 384 well Corning® 3985 plate with an ECHO acoustic dispenser and compounds were tested in 10-point serial 3-fold dilution. […] To set up the assay, ARF vial(s) were thawed in a 37° C. water bath and were then resuspended into assay media (DMEM containing 2% FBS, 100 U/ml Penicillin-Streptomycin). Cells were counted using default parameters on ViCell and diluted to 20,000 cells/mL in assay media. RSV-A2-GFP virus was added to cells at 24,000 pfu/ml (MOI=1.2) and mixed by gentle inversion. 10 μL/well of 100% DMSO was dispensed as CellTiter-Glo (CTG) assay Max_E controls wells. The cells were dispensed at 50 μL/well using Bravo with 50 μL filtered tips into compound plates. Plates were covered with MicroClime lids, loaded with 7.5 mL of assay media to minimize evaporation, and were incubated at 37° C. and 5% CO2 for 96 hrs. Following incubation, distinct, GFP-expressing cells were counted using an Acumen imaging system with appropriate settings. A same-well CTG assay was performed by adding 10 μL/well reconstituted CellTiter-Glo reagent (Promega G7573) and plates were read on PerkinElmer Envision according to manufacturer's instructions. Raw data were loaded and analyzed in ActivityBase. Antiviral IC50 and cytotoxicity CC50 values were determined using a 4 parameter logistic fit based on the Levenberg-Marquardt algorithm. Model: 205-4 Parameter Logistic.

The test system of a further test is hMPV-GFP virus. Briefly: microbe, parasite or virus in culture. Type of test: cell-based, Human Metapneumovirus. As to conditions: VERO cells, hMPV-GFP MOI=1.25, 48 hrs, GFP-expressing cells counted. The procedure:
GFP expressing rgHMPV #3 p3 was generated in Dr. Buchholz's lab (Biacchesi S. et al., J Virol. 2007 June; 81(11): 6057-6067) and propagated in VERO cells (ATCC Cat #CCL-81) with a Multiplicity of Infection (MOI) of 0.1. Virus was harvested 4 days after infection by collecting cultured material and was freeze-thaw cycled in liquid nitrogen twice. Working virus stocks were generated from thawing frozen samples in 37° C. water bath, which were centrifuged at 218 g for 15 min at 4° C. 1/10 of 10×SPG (Biological Industries 06-3061-01-5A) were added and then mixed. The supernatant was aliquoted, frozen in liquid nitrogen, and then transferred to a −80° C. freezer for storage. Virus titer was determined by performing titration test in 96-well plates and calculate approximate virus titer using GFP event/well data.
Compound plates were prepared by dispensing compounds dissolved in DMSO into wells of a 384 well Corning 3985 polystyrene flat clear bottom optical imaging microplate (202.5 nL/well) using an ECHO acoustic dispenser. Each compound was tested in 10-point serial 3-fold dilution (typical final concentrations: 40,300 nM-2 nM). […] Continuous culture of VERO cells was maintained in complete culture media (OptiMEM supplemented with 2 mM GlutaMAX™ and 100 U/ml Penicillin-Streptomycin). To set up the assay, VERO cells were trypsinized with 0.25% Trypsin-EDTA until cells were dislodged, then cells were re-suspended with 1 mL FBS. Cells were spundown at 300 g for 5 minutes and cells were washed twice with culture media and counted using default parameters on ViCell. Cells were then diluted to 100,000 cells/mL (5,000 cells/50 μL) in complete culture media+TrypLE Select (80 μL/mL). hMPV-GFP virus was added to cells at 125,000 pfu/mL (MOI=1.25) and were mixed by gentle inversion. 10 μL/well of 100% DMSO was dispensed to CellTiter-Glo (CTG) assay Max_E controls wells. Cells were dispensed at 50 μL/well using Bravo and 50 μL filtered tips into compound plates. Plates were covered with MicroClime lids and loaded with 7.5 mL of assay media to minimize evaporation. Plates were lightly shaken for 10 minutes at room temperature and then incubated at 37° C. and 5% CO2 for 48 hrs. Following incubation, distinct GFP-expressing cells were counted using an Acumen imaging system with appropriate settings. A same-well CTG assay was performed by adding 10 μL/well reconstituted CellTiter-Glo reagent (Promega G7573) and plates were read on PerkinElmer Envision according to manufacturer's instructions. Raw data were loaded and analyzed in ActivityBase. Antiviral IC50 and cytotoxicity CC50 values were determined using a 4 parameter logistic fit based on the Levenberg-Marquardt algorithm. Model: 205-4 Parameter Logistic.

The mark [1] stands for this setting: read-out: RSV EC50, Table I Summary of Activities for RSV.
Where [2] appears, read: read-out: RSV EC50, Table II Summary of Activities for hMPV.
The mark [3] stands for this setting: human respiratory syncytial virus, Calu-1, 96 h, read-out: RSV EC50, Table I Summary of Activities for RSV.
Setting [4] is: Vero, 48 h, read-out: RSV EC50, Table II Summary of Activities for hMPV.
Where [5] appears, read: Table I Summary of Activities for RSV, read-out: RSV EC50.
Setting [6] is: Table II Summary of Activities for hMPV, read-out: RSV EC50.

Each structure is given as a SMILES string. Where two headings read alike, the source gives them in different places.

For `Cn1nc(-c2cscn2)cc1C(=O)N1C[C@@H]2[C@H](C1)[C@H]2Oc1cc(C2(C)CNC2=O)cc(-c2ccc(F)cc2)n1` (single isomer, unassigned; ent-3) [Example 50B], the EC50 with RSV-A2-GFP virus (setting [1]) is < 10 nM; in the test on hMPV-GFP virus (setting [2]), > 100 nM.

In the case of `Cn1nc(-c2cscn2)cc1C(=O)N1C[C@@H]2[C@H](C1)[C@H]2Oc1cc(C2(C)CCNC2=O)cc(-c2ccc(F)cc2)n1` (single isomer, unassigned; ent-3) [Example 51A], the figures for the half-maximal effective concentration (EC50) in the test with RSV-A2-GFP virus (setting [3]) and with hMPV-GFP virus (setting [4]) were < 10 nM and > 100 nM, respectively.

On to `Cn1nc(-c2cscn2)cc1C(=O)N1C[C@@H]2[C@H](C1)[C@H]2Oc1cc(C2(C)CCNC2=O)cc(-c2ccc(F)cc2)n1` (single isomer, unassigned; ent-3) [Example 51B], for which the EC50 in the test on RSV-A2-GFP virus (setting [1]) was < 10 nM; in the test with hMPV-GFP virus (setting [2]) it was > 100 nM.

As for `Cc1nc(-c2ncco2)sc1C(=O)N1C[C@@H]2[C@H](C1)[C@H]2Oc1cc(C(C)(C)N)cc(-c2ccc(F)cc2)n1` [Example 3, ((1R,5S,6s)-6-((4-(2-aminopropan-2-yl)-6-(4-fluorophenyl)pyridin-2-yl)oxy)-3-azabicyclo[3.1.0]hexan-3-yl)(4-methyl-2-(oxazol-2-yl)thiazol-5-yl)methanone], the values for the EC50 with RSV-A2-GFP virus (setting [3]) and with hMPV-GFP virus (setting [4]) were < 10 nM and 10 to 100 nM, respectively.

`Cc1cnc(-c2nc(C)c(C(=O)N3C[C@@H]4[C@H](C3)[C@H]4Oc3cc(C(C)(C)N)cc(-c4ccc(F)cc4)n3)s2)o1` [Example 4, ((1R,5S,6s)-6-((4-(2-aminopropan-2-yl)-6-(4-fluorophenyl)pyridin-2-yl)oxy)-3-azabicyclo[3.1.0]hexan-3-yl)(4-methyl-2-(5-methyloxazol-2-yl)thiazol-5-yl)methanone]: the EC50 with RSV-A2-GFP virus (setting [5]) was < 10 nM; in the test on hMPV-GFP virus (setting [6]), 10 to 100 nM.

On to `Cc1nc(-c2ccon2)sc1C(=O)N1C[C@@H]2[C@H](C1)[C@H]2Oc1cc(C(C)(C)N)cc(-c2ccc(F)cc2)n1` [Example 5, ((1R,5S,6s)-6-((4-(2-aminopropan-2-yl)-6-(4-fluorophenyl)pyridin-2-yl)oxy)-3-azabicyclo[3.1.0]hexan-3-yl)(2-(isoxazol-3-yl)-4-methylthiazol-5-yl)methanone], for which the EC50 with RSV-A2-GFP virus (setting [5]) was < 10 nM; with hMPV-GFP virus (setting [6]), 10 to 100 nM.

For `Cc1nc(-c2nccs2)sc1C(=O)N1C[C@@H]2[C@H](C1)[C@H]2Oc1cc(C(C)(C)N)cc(-c2ccc(F)cc2)n1` [Example 6, ((1R,5S,6s)-6-((4-(2-aminopropan-2-yl)-6-(4-fluorophenyl)pyridin-2-yl)oxy)-3-azabicyclo[3.1.0]hexan-3-yl)(4-methyl-[2,2′-bithiazol]-5-yl)methanone], the EC50 is < 10 nM with RSV-A2-GFP virus (setting [5]) and > 100 nM in the test on hMPV-GFP virus (setting [6]).

For `Cc1nc(-c2cscn2)sc1C(=O)N1C[C@@H]2[C@H](C1)[C@H]2Oc1cc(C(C)(C)N)cc(-c2ccc(F)cc2)n1` [Example 7, ((1R,5S,6s)-6-((4-(2-aminopropan-2-yl)-6-(4-fluorophenyl)pyridin-2-yl)oxy)-3-azabicyclo[3.1.0]hexan-3-yl)(4-methyl-[2,4′-bithiazol]-5-yl)methanone], the results for the EC50 with RSV-A2-GFP virus (setting [5]) and in the test with hMPV-GFP virus (setting [6]) were < 10 nM and 10 to 100 nM, respectively.

Turning to `CC(C)(N)c1cc(O[C@H]2[C@@H]3CN(C(=O)c4sc(-c5cscn5)nc4C4CC4)C[C@@H]32)nc(-c2ccc(F)cc2)c1` [Example 8, ((1R,5S,6s)-6-((4-(2-aminopropan-2-yl)-6-(4-fluorophenyl)pyridin-2-yl)oxy)-3-azabicyclo[3.1.0]hexan-3-yl)(4-cyclopropyl-[2,4′-bithiazol]-5-yl)methanone], the EC50 in the test with RSV-A2-GFP virus (setting [5]) is < 10 nM; with hMPV-GFP virus (setting [6]) it was 10 to 100 nM.

For `Cc1nc(-c2ncc[nH]2)sc1C(=O)N1C[C@@H]2[C@H](C1)[C@H]2Oc1cc(C(C)(C)N)cc(-c2ccc(F)cc2)n1` [Example 9, (2-(1H-imidazol-2-yl)-4-methylthiazol-5-yl)((1R,5S,6s)-6-((4-(2-aminopropan-2-yl)-6-(4-fluorophenyl)pyridin-2-yl)oxy)-3-azabicyclo[3.1.0]hexan-3-yl)methanone], the figures for the concentration giving a half-maximal response (EC50) with RSV-A2-GFP virus (setting [5]) and in the test with hMPV-GFP virus (setting [6]) were < 10 nM and > 100 nM, respectively.

Regarding `Cc1nc(-c2ncn[nH]2)sc1C(=O)N1C[C@@H]2[C@H](C1)[C@H]2Oc1cc(C(C)(C)N)cc(-c2ccc(F)cc2)n1` [Example 10, ((1R,5S,6s)-6-((4-(2-aminopropan-2-yl)-6-(4-fluorophenyl)pyridin-2-yl)oxy)-3-azabicyclo[3.1.0]hexan-3-yl)(4-methyl-2-(1H-1,2,4-triazol-5-yl)thiazol-5-yl)methanone], the EC50 with RSV-A2-GFP virus (setting [5]) was < 10 nM; with hMPV-GFP virus (setting [6]), > 100 nM.

Consider `CCc1nc(-c2nc[nH]n2)sc1C(=O)N1C[C@@H]2[C@H](C1)[C@H]2Oc1cc(C(C)(C)N)cc(-c2ccc(F)cc2)n1` [Example 11, ((1R,5S,6s)-6-((4-(2-aminopropan-2-yl)-6-(4-fluorophenyl)pyridin-2-yl)oxy)-3-azabicyclo[3.1.0]hexan-3-yl)(4-ethyl-2-(1H-1,2,4-triazol-3-yl)thiazol-5-yl)methanone], for which the EC50 in the test with RSV-A2-GFP virus (setting [5]) is < 10 nM; in the test on hMPV-GFP virus (setting [6]) it was > 100 nM.

Broadly, the EC50 is the concentration giving half of the maximal effect.
